According to US20230407296A1, “Method to Regulate ALOX12-AS1 IncRNA-Mediated Alteration of ALOX12 Protein and to Screen for Novel Drugs to Alter ALOX12 Protein Level” (priority 2021, published 2023):
d = 2'-deoxy (DNA); m = 2'-O-methyl

Key:
ALOX12-AS1-202 = ALOX12-AS1-202 level in ASO-transfected HEK293 cells (multiplex RT-PCR / qPCR); type: cell-based, human; details: HEK293, ALOX12-AS1-201-targeted ASO, 24 hours after transfection, quantitative PCR
Procedure: (§1) Small interfering RNA (siRNA)-mediated knockdown of ALOX12-AS1 in HEK293 cells was ineffective possibly because of the nuclear localization of the lncRNA. As an alternative approach, multiple isoform-specific oligonucleotides (ASOs) complementary to different regions of ALOX12-AS1-201/202 were designed (FIG. 7A-C).
(§2) Three ALOX12-AS1-202-specific ASOs were designed and two of them (ASO-2 and -3) reduced ALOX12-AS1-202 mRNA levels within 24 hours of transfection (FIGS. 7L&O, red rectangle).
(§3) Total RNA from different cell lines was extracted with Trizol reagent (Catalog number: 15596026; ThermoFisher Scientific, Canada) as per the manufacturer's recommended protocol. […] Absolute quantification of ALOX12-AS1 lncRNA isoforms was performed in a Mastercycler®ep realplex real-time PCR system (Eppendorf, Hamburg, Germany) using SYBR green dye (Catalog number: S7563; ThermoFisher Scientific). […] Real-time PCR data quality control calculations were determined by the SAS program as described previously and the calculated PCR efficiency was between 95%-99%. Quantitative RT-PCR was conducted for different cell-line derived RNAs, and the specificity of each amplified product was confirmed by melting curve analysis. Results were expressed as copy number of specific isoforms per 100 ng of total RNA.

ALOX12 mRNA [1] = assay: ALOX12 mRNA level in HEK293 cells (multiplex RT-PCR / qPCR); type: cell-based, human
Description: HEK293 cells were transiently transfected with plasmids expressing ALOX12-AS1-201/202 to study lncRNA-mediated suppression of ALOX12. […] The nucleo-cytoplasmic abundance of ALOX12-AS1 lncRNA may be tightly regulated in HEK293 cells. Therefore, increased transcription of the transfected plasmids in the nucleus may not ensure higher levels of the lncRNAs in the cytoplasm, which may be a requisite for suppression of ALOX12. To overcome this limitation, HEK293 cells were transfected with in vitro transcribed ALOX12-AS1-201/202 mRNAs to ensure high cytoplasmic abundance of the antisense lncRNAs. […]
as §3

ALOX12-AS1-201 = ALOX12-AS1-201 level in ASO-transfected HEK293 cells (multiplex RT-PCR / qPCR); type: cell-based, human
Procedure: as §1, §2, §3

[2] = tested on: ALOX12 protein level in HEK293 cells; assay: ALOX12 protein level in HEK293 cells (immunoblot); type: cell-based, human
Procedure: Relative quantification of proteins was performed as described previously [35, 106]. The cell lysates were prepared in 1×RIPA lysis and extraction buffer (catalogue number: 89900, ThermoFisher Scientific) supplemented with 1× Halt protease and phosphatase inhibitor cocktail (catalogue number: 78441, ThermoFisher Scientific). The protein lysates were denatured in Laemmli buffer containing 2% SDS, 10% glycerol, 0.002% bromophenol blue, 0.75 M Tris-HCl pH 6.8, and 100 mM DTT. The immunoblots were imaged using a ChemiDoc XRS+ system (Bio-Rad) and band intensities were quantified using ImageJ (version 1.48) Software [107]. Due to the possibility of inconsistency in the relative expression of housekeeping genes, we normalized all proteins of interest based on the intensity of the Oriole-stained protein profile [92].

ALOX12 = biological target: T1, ALOX12 (Homo sapiens, UniProt P18054); details: cited from earlier work
T1 sequence (P18054 1-663): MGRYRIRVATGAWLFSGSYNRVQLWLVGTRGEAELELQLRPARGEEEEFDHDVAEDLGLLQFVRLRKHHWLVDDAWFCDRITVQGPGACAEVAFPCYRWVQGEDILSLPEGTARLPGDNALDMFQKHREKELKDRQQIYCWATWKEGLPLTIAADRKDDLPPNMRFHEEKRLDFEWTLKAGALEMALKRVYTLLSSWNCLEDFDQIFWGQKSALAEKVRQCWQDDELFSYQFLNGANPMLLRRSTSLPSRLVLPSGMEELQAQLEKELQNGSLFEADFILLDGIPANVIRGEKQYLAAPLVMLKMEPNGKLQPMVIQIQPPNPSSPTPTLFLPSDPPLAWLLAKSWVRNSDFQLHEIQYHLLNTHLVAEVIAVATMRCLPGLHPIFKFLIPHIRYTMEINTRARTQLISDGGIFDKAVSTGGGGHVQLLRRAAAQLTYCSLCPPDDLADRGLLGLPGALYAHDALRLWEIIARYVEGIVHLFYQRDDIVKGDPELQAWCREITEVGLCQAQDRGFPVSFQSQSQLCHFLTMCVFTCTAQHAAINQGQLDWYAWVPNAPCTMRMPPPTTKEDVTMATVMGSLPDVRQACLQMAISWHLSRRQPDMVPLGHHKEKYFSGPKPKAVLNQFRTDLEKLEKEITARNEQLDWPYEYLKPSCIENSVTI

ALOX12 mRNA [3] = details: HepG2 cells; cited from earlier work

mA*mG*mA*mA*mC*T*G*T*C*A*A*T*A*A*T*mC*mU*mU*mA*mC (antisense AGAACTGTCAATAATCUUAC; sugars from the 5' end m5 d10 m5, all phosphorothioate, methylation of C not given here) [ASO-4, ALOX12-AS1-201-targeted gapmer ASO]
ALOX12-AS1-202 isoform level (ALOX12-AS1-202): significant reduction
ALOX12 mRNA level (ALOX12 mRNA [1]; HEK293, ALOX12-AS1-201-targeted ASO, 24 hours after transfection, quantitative PCR): unchanged
ALOX12 mRNA levels (ALOX12 mRNA [1]; HEK293, ALOX12-AS1-201-targeted ASOs, multiplex RT-PCR): relatively unaltered
ALOX12-AS1-201 isoform level (ALOX12-AS1-201; HEK293, 24 hours after transfection, quantitative PCR): significant reduction
knockdown of ALOX12-AS1-201 (ALOX12-AS1-201; HEK293, ALOX12-AS1-201-targeted ASOs, within 24 hours of transfection, multiplex RT-PCR): ~27%
ALOX12 protein level ([2]; HEK293, ALOX12-AS1-201-targeted ASO, 24 hours after transfection, quantified immunoblot): significantly reduced
ALOX12 protein level ([2]; HEK293, ALOX12-AS1-201-targeted ASOs, immunoblot): dramatically reduced

O=c1cc(-c2ccccc2)oc2cc(O)c(O)c(O)c12 [baicalein, 5,6,7-Trihydroxyflavone]
inhibition of ALOX12 (ALOX12): can be inhibited
selectivity for ALOX12 over other ALOXs (ALOX12; inhibits other ALOXs): not selective for ALOX12

CCCCCCCC/C=C/CCCCCCCC(=O)O [elaidic acid]
reduction of ALOX12 mRNA expression (ALOX12 mRNA [3]): 1.8 fold
